Values of other authors in patent US20030162781A1, “Vehicle for applying chemical compounds on wood” (priority 2001, published 2003).

Conditions: water as carrier

O [Water]
wood penetration: scarcely penetrates the wood
